As usually defined, the EC90 is the point of the concentration-response curve where the effect stands at 90%.

One compound from patent US12605423B2, “Peptide inhibitors targeting methyltransfer mechanism of SARS-CoV-2” (United Arab Emirates University, priority 2021, dated 2026) can be followed below.

Entries after “also recorded” stand apart in the source; their conditions may differ.

In one experiment the test system is IL-6. The format is cell-based. To be noted: NCIH1792 (H1792) human lung cells, 10 μM peptide, versus PBS control.

Regarding `CSCC[C@H](NC(=O)[C@H](Cc1ccccc1)NC(=O)CNC(=O)[C@H](CO)NC(=O)CNC(=O)[C@H](CCCNC(=N)N)NC(=O)[C@H](CCCNC(=N)N)NC(=O)[C@H](CCCNC(=N)N)NC(=O)[C@H](CCC(N)=O)NC(=O)[C@H](CCCNC(=N)N)NC(=O)[C@H](CCCNC(=N)N)NC(=O)[C@H](CCCCN)NC(=O)[C@H](CCCCN)NC(=O)[C@H](CCCNC(=N)N)NC(=O)CNC(=O)[C@H](Cc1ccc(O)cc1)NC(C)=O)C(=O)N[C@@H](CC(=O)O)C(=O)N[C@@H](CC(C)C)C(=O)N[C@@H](CCCCN)C(=O)NCC(=O)N[C@@H](CCCCN)C(=O)N[C@@H](Cc1ccc(O)cc1)C(N)=O` [Peptide P3, FMDLKGKY], in the experiment with SARS-CoV-2, the 90% Effective Concentration (EC90) was found to be 3.3 µM and the EC90 was determined as 3.3 µM. Also, in the experiment with IL-6, the “IL-6 induction” value was “not P2 nor P3; also recorded: does not stimulate IL-6”.
